“Also recorded” adds a separate entry of the source. One block for each molecule: values may come before it. Ends that are not written are not given here.
Columns and labels:
mCRFR2β [1] = biological target: T1, mCRFR2β (Mus musculus, UniProt Q60748); assay: Binding of labeled Ucn1, mCRFR2β in E. coli; details: data not shown
T1 construct: mCRFR2β(Val25-C-term) - PhoA; made in house; host or cells: E. coli (membrane fraction)

hCRFR1α [2] = biological target: T2, hCRFR1α (Homo sapiens, UniProt P34998); assay: Binding of labeled Ucn1, hCRFR1α in E. coli; details: data not shown
T2 construct: The cDNAs encoding full-length mature forms of hCRFR1α and mCRFR2β were introduced into pET-26b plasmid; made in house; host or cells: E. coli (membrane fraction)
T2 sequence (P34998 24-415): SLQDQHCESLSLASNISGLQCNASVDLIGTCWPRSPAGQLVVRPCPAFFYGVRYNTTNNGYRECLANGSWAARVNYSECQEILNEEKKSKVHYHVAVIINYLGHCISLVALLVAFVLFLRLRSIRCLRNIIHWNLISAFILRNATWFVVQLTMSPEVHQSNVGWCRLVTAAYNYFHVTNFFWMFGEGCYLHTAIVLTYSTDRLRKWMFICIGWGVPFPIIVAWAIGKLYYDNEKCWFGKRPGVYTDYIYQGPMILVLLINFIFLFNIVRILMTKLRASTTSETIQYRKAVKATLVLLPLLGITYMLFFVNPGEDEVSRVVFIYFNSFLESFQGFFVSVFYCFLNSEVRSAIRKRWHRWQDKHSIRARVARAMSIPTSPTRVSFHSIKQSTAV

ECD-1s of the CRFRs = details: cited from earlier work
Source text: Further, the CRFRs' coupling to G-proteins in mammalian cells is important for the high affinity binding of agonists, such as sauvagine and CRF, ...

mCRFR2β [3] = biological target: T1, mCRFR2β; assay: Competitive displacement of labeled astressin, mCRFR2β in E. coli membranes; type: binding; details: for Displacement of bound labeled astressin: mCRFR2β, E. coli membranes (Figure 11B)
Protocol: (§1) The incubation was performed at room temp for 90-120 min, at which time the plates were aspirated and each well was washed with 2×100 μl assay buffer, dried and counted in a γ-counter. Each assay included at least triplicate wells for each concentration, and the assays were repeated at least twice (except where indicated). […] The saturation and competitive binding experiments are analyzed by non-linear regression with the GraphPad Prism program (www.graphpad.com) assuming binding to a single site. Specifically, for saturation binding experiments, binding is determined as a function of increasing concentrations of radioligand. The equation used is y = {(Bmax)^.[radioligand]}/{Kd+[radioligand]}, where y = the specific binding (i.e., total binding-non-specific binding). Competitive binding experiments use a constant concentration of radioligand together with increasing concentrations of competitor. […] Because [radioligand] is <Kd, the Ki = EC50. For multiple determinations, Log (EC50) values were averaged to calculate the values in Table 1. […] In Table 1, the inhibition constant (Ki) values are shown together with the standard error and ranges, calculated assuming log normal distribution.

hCRFR1α [4] = biological target: T2, hCRFR1α; assay: Competitive displacement of labeled astressin, hCRFR1α in E. coli membranes; type: binding; details: E. coli membranes (Figure 11A)
Protocol: as §1

CRFR1 / CRFR2 = details: introduction; cited from earlier work
Source text: In most vertebrates there are two highly conserved tissue-specifically expressed CRFRs, designated type 1 [15] and type 2 [16], encoded by different genes and approximately 70% identical to each other at the amino acid level. CRFR1 is relatively more abundant in the nervous system, including the pituitary, while CRFR2 is particularly expressed in the heart, skeletal muscle, and gastrointestinal tract. […] The main type 1 isoform in human, ra ...

CRFR1 = tested on: CRFR1; set-up: method as in PMID 9415408; details: CRFR1 in mammalian cells; cited from earlier work
hCRFR1α [5] = biological target: T2, hCRFR1α; assay: Competitive displacement of labeled PD-sauvagine, hCRFR1α in E. coli membranes; type: binding; details: E. coli membranes (Figure 14)
Protocol: Each assay included at least triplicate wells for each concentration, and the assays were repeated at least twice (except where indicated).
The saturation and competitive binding experiments are analyzed by non-linear regression with the GraphPad Prism program (www.graphpad.com) assuming binding to a single site. Specifically, for saturation binding experiments, binding is determined as a function of increasing concentrations of radioligand. The equation used is y = {(Bmax)^.[radioligand]}/{Kd+[radioligand]}, where y = the specific binding (i.e., total binding-non-specific binding). Competitive binding experiments use a constant concentration of radioligand together with increasing concentrations of competitor. […] Because [radioligand] is <Kd, the Ki = EC50. For multiple determinations, Log (EC50) values were averaged to calculate the values in Table 1. […] In Table 1, the inhibition constant (Ki) values are shown together with the standard error and ranges, calculated assuming log normal distribution.

mCRFR2β [6] = biological target: T1, mCRFR2β; assay: Binding of labeled sauvagine, mCRFR2β in E. coli; details: mCRFR2β expressed in E. coli, [^125I-Tyr^0,Glu^1,Nle^17]-sauvagine
Protocol: (§2) The incubation was performed at room temp for 90–120 min, at which time the plates were aspirated and each well was washed with 2×100 µl assay buffer, dried and counted in a γ-counter. Each assay included at least triplicate wells for each concentration, and the assays were repeated at least twice (except where indicated).

hCRFR1α [7] = biological target: T2, hCRFR1α; assay: Binding of labeled sauvagine, hCRFR1α in E. coli; details: hCRFR1α expressed in E. coli, [^125I-Tyr^0,Glu^1,Nle^17]-sauvagine
Protocol: as §2

mCRFR2β [8] = biological target: T1, mCRFR2β; assay: Saturation binding of labeled PD-sauvagine, mCRFR2β in E. coli membranes
Protocol: as §1

hCRFR1α [9] = biological target: T2, hCRFR1α; assay: Saturation binding of labeled PD-sauvagine, hCRFR1α in E. coli membranes
Protocol: as §1

[10] = listed as labeled agonist sauvagine
[11] = labeled PD-sauvagine versus labeled astressin, printed with ref [55]
[12] = nanomolar concentrations, Kd not determined (Figure S3)

T1 sequence (Q60748 25-431 isoform Q60748-2): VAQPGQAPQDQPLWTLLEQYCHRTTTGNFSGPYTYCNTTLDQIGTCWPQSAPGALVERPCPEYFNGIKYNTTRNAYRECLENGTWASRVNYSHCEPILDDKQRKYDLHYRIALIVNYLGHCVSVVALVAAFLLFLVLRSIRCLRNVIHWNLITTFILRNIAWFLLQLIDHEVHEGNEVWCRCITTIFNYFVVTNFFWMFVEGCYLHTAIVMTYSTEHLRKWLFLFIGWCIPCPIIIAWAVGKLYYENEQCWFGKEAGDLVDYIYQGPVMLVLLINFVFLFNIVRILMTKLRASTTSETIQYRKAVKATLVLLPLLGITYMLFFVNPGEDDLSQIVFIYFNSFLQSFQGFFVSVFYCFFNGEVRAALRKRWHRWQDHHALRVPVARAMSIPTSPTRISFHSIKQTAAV

Molecule: labeled Ucn1: labeled Ucn1, binding data not shown (DNPSLSIDLTFHLLRTLLELARTQSQRERAEQNRIIFDSV; ends and bridges not checked; also: labeled (label not given here); UniProt P55089 83-122, looked up)
- Binding of labeled Ucn1 (mCRFR2β [1]): observed binding of labeled Ucn1 to the receptors
- Binding of labeled Ucn1 (hCRFR1α [2]): observed binding of labeled Ucn1 to the receptors

Molecule: sauvagine
- Binding to ECD-1s (ECD-1s of the CRFRs): does not bind to the isolated ECD-1s
- Displacement of bound labeled astressin (mCRFR2β [3]): does not displace labeled astressin bound to either receptor
- Displacement of bound labeled astressin (hCRFR1α [4]): does not displace labeled astressin bound to either receptor

Molecule: r/hCRF: CRF is a 41-amino acid (aa) peptide synthesized in the hypothalamus
- Relative affinity for CRFR1 and CRFR2 (CRFR1 / CRFR2): tenfold higher affinity for CRFR1 than for CRFR2

- Displacement of bound labeled astressin (mCRFR2β [3]): does not compete for binding to mCRFR2β
Molecule: mUcn3: CRFR2-selective ligand, mouse (FTLSLDVPTNIMNILFNIDKAKNLRAKAAANAQLMAQI; ends and bridges not checked; UniProt Q924A4 123-160, looked up)
- Relative affinity for CRFR1 and CRFR2 (CRFR1 / CRFR2): selective for CRFR2

Molecule: CCCCN(CC)c1nc(C)nc2c1c(C)c(C)n2-c1c(C)cc(C)cc1C [antalarmin]
- Binding site (CRFR1): binds to a site defined by residues in transmembrane domains 3 and 5 of CRFR1
- Displacement of bound labeled PD-sauvagine (hCRFR1α [5]): displaces labeled PD-sauvagine bound to hCRFR1α (Figure 14) in a dose dependent manner; also recorded: competitively displaces labeled PD-sauvagine bound to a small percentage of the hCRFR1α expressed in E. coli membranes

- Binding of labeled sauvagine (mCRFR2β [6]): fail to bind labeled sauvagine
- Binding of labeled sauvagine (hCRFR1α [7]): fail to bind labeled sauvagine
Molecule: [^125I-Tyr^0,Glu^1,Nle^17]-sauvagine [labeled sauvagine]
- Binding of labeled sauvagine (mCRFR2β [6]; [10]): do not bind the labeled agonist sauvagine
- Binding of labeled sauvagine (hCRFR1α [7]; [10]): do not bind the labeled agonist sauvagine

Molecule: [^125I-Tyr^0,Glu^1]PD-sauvagine [labeled PD-sauvagine]
- Binding of labeled PD-sauvagine (mCRFR2β [8]): do bind the other labeled agonist, PD-sauvagine
- Number of sites detected (mCRFR2β [8]; [11]): less than that detected by labeled astressin
- Saturation of binding (mCRFR2β [8]; [12]): at nanomolar concentrations the binding did not saturate
- Binding of labeled PD-sauvagine (hCRFR1α [9]): do bind the other labeled agonist, PD-sauvagine
- Number of sites detected (hCRFR1α [9]; [11]): less than that detected by labeled astressin
- Saturation of binding (hCRFR1α [9]; [12]): at nanomolar concentrations the binding did not saturate

- Ki (mCRFR2β [3]; read-out: Inhibitory binding constant (Ki)): 11.5 nM
Molecule: CC[C@H](C)[C@H](NC(=O)[C@H](CO)NC(=O)[C@H](CC(C)C)NC(=O)[C@@H]1CCCN1C(=O)[C@@H]1CCCN1C(=O)[C@H](CC(=O)O)NC(=O)[C@@H](N)CC(=O)O)C(=O)N[C@@H](CC(=O)O)C(=O)N[C@@H](CC(C)C)C(=O)N[C@H](C(=O)N[C@@H](Cc1ccccc1)C(=O)N[C@@H](Cc1c[nH]cn1)C(=O)N[C@@H](CC(C)C)C(=O)N[C@@H](CC(C)C)C(=O)N[C@@H](CCCNC(=N)N)C(=O)N[C@H](C(=O)N[C@@H](CC(C)C)C(=O)N[C@@H](CC(C)C)C(=O)N[C@@H](CCC(=O)O)C(=O)N[C@@H](CC(C)C)C(=O)N[C@@H](C)C(=O)N[C@@H](CCCNC(=N)N)C(=O)N[C@H](C(=O)N[C@@H](CCC(N)=O)C(=O)N[C@@H](CO)C(=O)N[C@@H](CCC(N)=O)C(=O)N[C@@H](CCCNC(=N)N)C(=O)N[C@@H](CCC(=O)O)C(=O)N[C@@H](CCCNC(=N)N)C(=O)N[C@@H](C)C(=O)N[C@@H](CCC(=O)O)C(=O)N[C@@H](CCC(N)=O)C(=O)N[C@@H](CC(N)=O)C(=O)N[C@@H](CCCNC(=N)N)C(=O)N[C@H](C(=O)N[C@H](C(=O)N[C@@H](Cc1ccccc1)C(=O)N[C@@H](CC(=O)O)C(=O)N[C@@H](CO)C(=O)N[C@H](C(N)=O)C(C)C)[C@@H](C)CC)[C@@H](C)CC)[C@@H](C)O)[C@@H](C)O)[C@@H](C)O [rUcn1]

From paper PMC3894963, “Expression and Functional Characterization of Membrane-Integrated Mammalian Corticotropin Releasing Factor Receptors 1 and 2 in Escherichia coli” (PLoS ONE, 2014)
